SMILES strings stand for the structures. Active and inactive are the calls of the source. The rule behind the calls is not given here.

Four compounds from ChEMBL document CHEMBL3044847, “Evaluation of systemic acquired resistance inducers for control of Phytophthora capsici on squash” (Crop Prot, 2009) can be followed below.

The subject of data set [1] is Phytophthora capsici. The data set can be described thus: Insecticidal activity against 10^3 spores/ml of Phytophthora capsici in Cucurbita pepo assessed as reduction of disease severity under greenhouse condition at 25 to 50 ug/ml applied as foliar spray after 1 week. It counts as functional, organism-based.
Data set [2] concerns Phytophthora capsici. Kind of data set: Insecticidal activity against 10^4 spores/ml of Phytophthora capsici in Cucurbita pepo assessed as reduction of disease severity under greenhouse condition at 25 to 50 ug/ml applied as foliar spray after 1 week. It counts as functional, organism-based.
The test system of data set [3] is Phytophthora capsici. The data set can be described thus: Insecticidal activity against Phytophthora capsici assessed as inhibition of mycelial growth by measuring perpendicular colony diameter at 25 to 2000 ug/ml after 8 days. It counts as functional, organism-based.
The subject of data set [4] is Phytophthora capsici. The data set can be described thus: Insecticidal activity against Phytophthora capsici assessed as inhibition of zoospore germination at 500 to 1000 ug/ml after 4 days with 16 hr photoperiod. It counts as functional, organism-based.
Data set [5] has as its system Phytophthora capsici. The data set can be described thus: Insecticidal activity against Phytophthora capsici assessed as inhibition of sporangium production after 4 days. It counts as functional, organism-based.
The subject of data set [6] is Phytophthora capsici. Kind of data set: Insecticidal activity against Phytophthora capsici in Cucurbita pepo assessed as effect on host weight and height under greenhouse condition at 25 to 50 ug/ml. It counts as functional, organism-based.
For data set [7], the system named is Cucurbita pepo. Kind of data set: Phytotoxicity in Cucurbita pepo (pumpkin) assessed as effect on host weight and height under greenhouse condition at 50 ug/ml. It counts as organism-based. Particulars: in vivo.
Data set [8] relates to Phytophthora capsici. The data set can be described thus: Insecticidal activity against Phytophthora capsici in Cucurbita pepo assessed as reduction of disease severity under greenhouse condition at 25 to 50 ug/ml after 1 week. It counts as functional, organism-based.
Data set [9] relates to Cucurbita pepo. The data set can be described thus: Toxicity in Cucurbita pepo (pumpkin) assessed as effect on host weight and height under greenhouse condition at 25 to 50 ug/ml. It counts as organism-based. As to conditions: in vivo.
Data set [10] concerns Phytophthora capsici. Kind of data set: Insecticidal activity against Phytophthora capsici assessed as inhibition of sporangium production at 25 to 1000 ug/ml after 4 days. It counts as functional, organism-based.
In data set [11] the test system is Phytophthora capsici. The data set can be described thus: Insecticidal activity against Phytophthora capsici assessed as inhibition of zoospore germination at 25 to 1000 ug/ml after 4 days with 16 hr photoperiod. The format is functional, organism-based.
In data set [12] the test system is Phytophthora capsici. The data set can be described thus: Insecticidal activity against Phytophthora capsici assessed as inhibition of sporangium production at 500 to 1000 ug/ml after 4 days. The format is functional, organism-based.

Turning to `O=C(O)c1cc(Cl)nc(Cl)c1` [2,6-DICHLOROISONICOTINIC ACID], the outcome in the data set with Phytophthora capsici [1], with Phytophthora capsici [2], in the data set with Phytophthora capsici [6] and in the data set with Phytophthora capsici [8] was Active. The inhibition entry in the data set with Phytophthora capsici [3] and in the data set on Phytophthora capsici [4] was “Active” throughout. The inhibition entry in the data set with Phytophthora capsici [5] is “Dose-dependent effect”. Also, the Activity entry in the data set on Cucurbita pepo [7] was “Toxic”.
Consider `O=C(O)c1ccccc1O` [SALICYLIC ACID], for which the inhibition entry with Phytophthora capsici [4] was “Active”. The Activity result with Cucurbita pepo [9] is “Non-toxic”. The outcome with Phytophthora capsici [6] was Active.
In the case of `CC(N)CC(=O)O` (racemic), the result in the data set with Phytophthora capsici [1], with Phytophthora capsici [6] and with Phytophthora capsici [8] was Active. Further, the inhibition result with Phytophthora capsici [3], in the data set on Phytophthora capsici [10] and in the data set with Phytophthora capsici [11] was “inactive” throughout. The Activity result in the data set on Cucurbita pepo [9] and with Cucurbita pepo [7] was “Non-toxic” throughout.
On to `CSC(=O)c1cccc2nnsc12` [ACIBENZOLAR-S-METHYL], for which the outcome in the data set with Phytophthora capsici [1], with Phytophthora capsici [2], in the data set on Phytophthora capsici [6] and with Phytophthora capsici [8] was Active. Also, in the data set on Phytophthora capsici [12], the inhibition entry was “Active”. For the same compound, the inhibition result with Phytophthora capsici [3] and in the data set on Phytophthora capsici [11] was “inactive” in each case. In the data set with Cucurbita pepo [7], the Activity entry is on record as “Toxic”.
